Biological target: T1, GABA A α5 (human receptors of composition α5β3γ2) (Homo sapiens, UniProt P18507+P31644)
T1 construct: expressed in transfected cells; host or cells: HEK293, transiently transfected; membranes prepared from cell pellets
Assay: [3H]flumazenil competition binding, HEK293 cells expressing human GABA A α5β3γ2 receptors
Conditions: [3H]-Flumazenil 0.5 nM, means of two determinations, read-out: hKi (GABA Aα5)
Description: The affinity of compounds at GABA A receptor subtypes was measured by competition for [^3H]flumazenil (85 Ci/mmol; Roche) binding to HEK293 cells expressing rat (stably transfected) or human (transiently transfected) receptors of composition α1β3γ2, α2β3γ2, α3β3γ2 and α5β3γ2.
Cell pellets were suspended in Krebs-tris buffer (4.8 mM KCl, 1.2 mM CaCl2, 1.2 mM MgCl2, 120 mM NaCl, 15 mM Tris; pH 7.5; binding assay buffer), homogenized by polytron for ca. 20 sec on ice and centrifuged for 60 min at 4° C. (50000 g; Sorvall, rotor: SM24=20000 rpm). The cell pellets were resuspended in Krebs-tris buffer and homogenized by polytron for ca. 15 sec on ice. Protein was measured (Bradford method, Bio-Rad) and aliquots of 1 mL were prepared and stored at −80° C.
Radioligand binding assays were carried out in a volume of […] (96-well plates) which contained […] of cell membranes, [^3H]-Flumazenil at a concentration of 1 nM for α1, α2, α3 subunits and 0.5 nM for α5 subunits and the test compound in the range of […]. Nonspecific binding was defined by 10^−5 M diazepam and typically represented less than 5% of the total binding. Assays were incubated to equilibrium for 1 hour at 4° C. and harvested onto GF/C uni-filters (Packard) by filtration using a Packard harvester and washing with ice-cold wash buffer (50 mM Tris; pH 7.5). After drying, filter-retained radioactivity was detected by liquid scintillation counting. Ki values were calculated using Excel-Fit (Microsoft) and are the means of two determinations.
Representative test results, obtained by the above described assay measuring binding affinity to HEK293 cells expressing human (h) receptors, are shown in table 1 below.

| SMILES | Ki [nM] |
| --- | --- |
| CCCCc1noc(C)c1COc1ccc(C(=O)NN(C)C)cn1 [Example 10, 6-((3-Butyl-5-methyl-isoxazol-4-yl)-methoxy)-nicotinic acid 2,2-dimethyl-hydrazide] | 18.7 |
| Cc1onc(-c2ccccc2)c1COc1ccc(C(=O)NN2CCS(=O)(=O)CC2)cn1 [Example 5, N-(1,1-Dioxo-1,6-thiomorpholin-4-yl)-6-((5-methyl-3-phenyl-isoxazol-4-yl)-methoxy)-nicotinamide] | 2.6 |
| Cc1onc(-c2ccccc2)c1COc1ccc(C(=O)NN2CCCCC2)cn1 [Example 3, 6-((5-Methyl-3-phenyl-isoxazol-4-yl)-methoxy)-N-piperidin-1-yl-nicotinamide] | 4 |
| Cc1onc(-c2ccccc2)c1COc1ccc(C(=O)NN2CCCC2)cn1 [Example 4, 6-((5-Methyl-3-phenyl-isoxazol-4-yl)-methoxy)-N-pyrrolidin-1-yl-nicotinamide] | 2.6 |
| Cc1onc(-c2ccccc2)c1COc1ccc(C(=O)NN)cn1 [Example 1, 6-((5-Methyl-3-phenyl-isoxazol-4-yl)-methoxy)-nicotinic acid hydrazide] | 5.4 |
| Cc1onc(-c2ccccc2)c1COc1ccc(C(=O)NN2CCOCC2)nn1 [Example 11, 6-((5-Methyl-3-phenyl-isoxazol-4-yl)-methoxy)-pyridazine-3-carboxylic acid morpholin-4-ylamide] | 9.5 |
| CCCCc1noc(C)c1COc1ccc(C(=O)NN2CCCC2)cn1 [Example 9, 6-((3-Butyl-5-methyl-isoxazol-4-yl)-methoxy)-N-pyrrolidin-1-yl-nicotinamide] | 19.4 |
| Cc1onc(-c2ccccc2)c1COc1ccc(C(=O)NN2CCOCC2)cn1 [Example 2, 6-((5-Methyl-3-phenyl-isoxazol-4-yl)-methoxy)-N-morpholin-4-yl-nicotinamide] | 0.6 |
| Cc1onc(-c2ccc(F)cn2)c1COc1ccc(C(=O)NN2CCOCC2)cn1 [Example 7, 6-[(3-(5-Fluoro-pyridin-2-yl)-5-methyl-isoxazol-4-yl)-methoxy]-N-morpholin-4-yl-nicotinamide] | 0.4 |
| CCCCc1noc(C)c1COc1ccc(C(=O)NN2CCOCC2)cn1 [Example 8, 6-((3-Butyl-5-methyl-isoxazol-4-yl)-methoxy)-N-morpholin-4-yl-nicotinamide] | 6.4 |
| Cc1onc(-c2ccccc2)c1COc1ccc(C(=O)NNS(C)(=O)=O)cn1 [Example 6, 6-((5-Methyl-3-phenyl-isoxazol-4-yl)-methoxy)-nicotinic acid N′-(methylsulfonyl)-hydrazide] | 4.8 |

Source: US20100280019A1, “ISOXAZOLES” (priority 2009, published 2010)
